Results from paper PMC10060004, “A Self-Immolative Linker for the pH-Responsive Release of Amides” (Molecules, 2023).

Assays:
[1] = Release experiments (hydrolysis / payload release) in acidic acetate buffer, HPLC; assay type: physicochemical; details: for peak intensity of the conjugate at pH 4.5: pH 4.5, HPLC
Procedure: (§1) General procedure for release experiments. A 10 mM stock-solution of compounds 8a, 8b, 10, 15, 17, and 18 was prepared in DMSO and diluted in the corresponding buffers to obtain a 1 mM solution. In the case of compound 16, the 10 mM stock-solution was diluted in the corresponding buffer and additionally diluted with DMSO to obtain a final 0.67 mM solution in buffer/H2O/DMSO. For analysis at pH 7.4 and 6, phosphate buffers of 0.1 M were used (KH2PO4/K2HPO4). For pH 5.5 and 4.5, acetate buffer of 0.1 M was used (CH3COONa/CH3COOH). All compounds were mixed with the buffers at 25 °C and further incubated at 37 °C. HPLC analyses were carried out following the method reported in SI every 1–3 h up to 6 h and every 6 h up to 48 h.

[2] = Stability in solution at pH 7.4 (PBS / phosphate buffer), HPLC; assay type: physicochemical; details: for stability in solution at pH 7.4: PBS solution, pH 7.4, 48 h; for pH 7.4, percentage of unmodified compound / pH 7.4, t1/2: pH 7.4 solution; for pH 7.4, percentage of unmodified compound: after 48 h of incubation; for pH 7.4, t1/2: time before half of the drug is degraded
Procedure: as §1

[3] = Stability in plasma experiments (pooled human plasma, UV/LC-MS); assay type: in vitro ADME; details: for Plasma, percentage of unmodified compound: 37 °C, after 24 h of incubation; for half-life at 100 µM: pooled human plasma, pH 7.4, 37 °C, time before half of the drug is degraded, read-out: Plasma, t1/2
Procedure: Stability in plasma experiments. Pooled human plasma, purchased from Merck (0.9 mL, […]); hepes buffer (1.0 mL, 25 mM, NaCl 140 mM, pH 7.4); and tested compound dissolved in DMSO (100 µL, 2.0 mM) were mixed in a test tube incubated at 37 °C under continuous mechanical agitation. At set time points (0.0, 0.25, 0.50, 1.0, 3.0, 5.0, 8.0, and 24.0 h), samples of 100 µL were taken, mixed with 400 µL of cold acetonitrile, and centrifuged at 5000 rpm for 15 min. The supernatant was collected and analysed by UV/LC-MS to monitor the amount of unmodified compound. LC analyses of plasma stability tests were performed using Agilent 1100 LC/MSD VL system (G1946C) (Agilent Technologies, Palo Alto, CA, USA) constituting a vacuum solvent degassing unit, a binary high-pressure gradient pump, an 1100 series UV detector, and an 1100 MSD model VL benchtop mass spectrometer. A MSD single-quadrupole instrument was equipped with the orthogonal spray API-ES (Agilent Technologies, Palo Alto, CA, USA). The pressure of the nebulizing gas and the flow of the drying gas (nitrogen used for both) were set at 40 psi and 9 L/min, respectively. The capillary voltage, fragmentation voltage, and vaporization temperature were 3000 V, 10 V, and 350 °C, respectively. MSD was used in the positive and negative ion mode. Spectra were acquired over the scan range m/z 100–2000 using a step size of 0.1. Chromatographic analyses were performed using a Phenomenex Kinetex EVO C18-100Å (150 × 4.6 mm, 5 μm particle size) at room temperature, at a flow rate of 0.6 mL/min, injection volume of 10 μL, operating with a gradient elution of A: water (H2O) and B: acetonitrile (ACN). Both solvents were acidified with 0.1% v/v of formic acid. UV detection was monitored at 254 nm. The analysis started with 0% of B, then B was increased to 80% (from t = 0 to t = 20 min), then kept at 80% (from t = 20 to t = 25 min), and finally returned to 0% of eluent B in 5.0 min.

Stability test in water = assay type: physicochemical; details: for H2O, percentage of unmodified compound: after 48 h of incubation; for half-life: time before half of the drug is degraded, read-out: H2O, t1/2
Procedure: as §1

SMILES	free Enzalutamide 9 detected at pH 4.5 ([1]; pH 4.5, 48 h, 37 °C)	peak intensity of the conjugate at pH 4.5 [1]	amide 9 released at pH 5.5 ([1]; pH 5.5, after 48 h at 37 °C)	stability in solution at pH 7.4 [2]	drug released at pH 5.5 after 48 h ([1]; pH 5.5, after 48 h)	rate of release at pH 5.5 (qualitative) ([1]; pH 5.5, compared with the other derivatives)	Plasma, percentage of unmodified compound [3]	half-life at 100 µM [3]	H2O, percentage of unmodified compound (Stability test in water)	half-life (Stability test in water)	pH 7.4, percentage of unmodified compound [2]	pH 7.4, t1/2 [2]
C#CCOc1cc(COC(=O)N(C)C(=O)c2ccc(N3C(=S)N(c4ccc(C#N)c(C(F)(F)F)c4)C(=O)C3(C)C)cc2F)ccc1OCOC [Compound 10, 4-(Methoxymethoxy)-3-(prop-2-yn-1-yloxy)benzyl (4-(3-(4-cyano-3-(trifluoromethyl)-phenyl)-5,5-dimethyl-4-oxo-2-thioxoimidazolidin-1-yl)-2-fluorobenzoyl)(methyl)-carbamate]	40%	decreased	only a small amount	stable	–	–	–	–	–	–	–	–
C#CCOc1cc(COC(=O)N(C[C@@H]2CN(c3ccc(N4CCOCC4)c(F)c3)C(=O)O2)C(C)=O)ccc1OCOCCOC [Compound 8b, {[3-(3-Fluoro-4-morpholinophenyl)-2-oxo-1,3-oxazolidin-5-yl]methyl}acetylamino-{4-[(2-methoxyethoxy)methoxy]-3-(2-propynyloxy)-phenyl}methylformylate]	–	decreased	–	stable	–	–	–	–	–	–	–	–
C#CCOc1cc(COC(=O)NS(=O)(=O)c2ccc(C)cc2)cc2c1OC(OCC)O2 (stereo not shown) [Compound 18, (2-Ethoxy-7-(prop-2-yn-1-yloxy)benzo[d][1,3]dioxol-5-yl)methyl tosylcarbamate]	–	–	–	–	no more than 80%	faster	84%	> 1440 min	99%	> 2880 min	92%	> 48 h
C#CCOc1cc(COC(=O)N(C[C@H]2CN(c3ccc(N4CCOCC4)c(F)c3)C(=O)O2)C(C)=O)cc2c1OC(OCC)O2 (stereo partly drawn) [Compound 15, (2-Ethoxy-7-(prop-2-yn-1-yloxy)benzo[d][1,3]dioxol-5-yl)methyl acetyl(((R)-3-(3-fluoro-4-morpholinophenyl)-2-oxooxazolidin-5-yl)methyl)carbamate]	–	–	–	–	–	–	95%	> 1440 min	99%	> 2880 min	94%	> 48 h
C#CCOc1cc(COC(=O)N(C)C(=O)c2ccc(N3C(=S)N(c4ccc(C#N)c(C(F)(F)F)c4)C(=O)C3(C)C)cc2F)cc2c1OC(OCC)O2 (stereo not shown) [Compound 16, (2-Ethoxy-7-(prop-2-yn-1-yloxy)benzo[d][1,3]dioxol-5-yl)methyl (4-(3-(4-cyano-3-(trifluoromethyl)phenyl)-5,5-dimethyl-4-oxo-2-thioxoimidazolidin-1-yl)-2-fluorobenzoyl)(methyl)carbamate]	–	–	–	–	–	–	89%	> 1440 min	99%	> 2880 min	95%	> 48 h
C#CCOc1cc(COC(=O)N(C[C@H]2CN(c3ccc(N4CCOCC4)c(F)c3)C(=O)O2)C(C)=O)ccc1OCOC [Compound 8a, 4-(Methoxymethoxy)-3-(prop-2-yn-1-yloxy)benzyl (R)-acetyl((3-(3-fluoro-4-morpholino-phenyl)-2-oxooxazolidin-5-yl)methyl)carbamate]	–	decreased	–	stable	–	–	–	–	–	–	–	–
